For 13 compounds, TGI results are on record in PubChem BioAssay (NCI).

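Briefly, cells in 96-well plates were exposed to five compound concentrations for 48 h, and endpoints were estimated by linear interpolation. At the TGI there is no net growth.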

Among the test systems are HL-60(TB) leukemia; MOLT-4 leukemia; HOP-92 NSCLC; HS 578T breast; KM12 colon; NCI/ADR-RES ovarian; M14 melanoma; UACC-257 melanoma; 786-0 renal; MDA-N; ACHN renal.
Experiment in all cases: DTP human tumour cell line panel, 48 h

Consider `CC(=O)N(C)c1ccc(Nc2cc(C)[nH]c3ccc4ncnc4c23)cc1`, for which the TGI in the test on HL-60(TB) leukemia was 18.9 µM; in the test on MOLT-4 leukemia, 13.7 µM; in the test on HOP-92 NSCLC, 14.7 µM; in the test on HS 578T breast, 35.5 µM; in the test on KM12 colon it was 27.6 µM; in the test on NCI/ADR-RES ovarian, 453 µM. Also, the concentration for total growth inhibition (TGI) with M14 melanoma is 21.5 µM; in the test on UACC-257 melanoma it was 26.7 µM; in the test with 786-0 renal, 18.8 µM; in the test on MDA-N, 23.9 µM; in the test with ACHN renal, 16.3 µM.
Turning to `OCC1OC(c2cccc3cc(O)c(O)cc23)CC1O` (stereo not drawn), the TGI in the test with HL-60(TB) leukemia, in the test with MOLT-4 leukemia, with HOP-92 NSCLC, in the test on HS 578T breast, in the test on KM12 colon and in the test with NCI/ADR-RES ovarian was more than 100 µM each time. Besides, the total growth inhibition concentration (TGI) in the test with M14 melanoma, in the test with UACC-257 melanoma, in the test with 786-0 renal, in the test with MDA-N and in the test on ACHN renal was more than 100 µM in each case.
As to `O=C1NC(=O)C(c2c[nH]c3ccccc23)=C1c1cnc[nH]1`, the TGI with HL-60(TB) leukemia, in the test on MOLT-4 leukemia, with HOP-92 NSCLC, in the test with HS 578T breast, with KM12 colon and with NCI/ADR-RES ovarian was more than 100 µM in each case. For the same compound, the total growth inhibition concentration (TGI) in the test with M14 melanoma, in the test on UACC-257 melanoma, in the test on 786-0 renal, in the test on MDA-N and in the test on ACHN renal was more than 100 µM throughout.
Turning to `CCOC(=O)c1c(NC(=O)c2cccs2)sc2c1CCCC2`, the total growth inhibition concentration (TGI) was more than 100 µM with HL-60(TB) leukemia; more than 100 µM in the test with MOLT-4 leukemia; more than 100 µM in the test with HOP-92 NSCLC; 76.9 µM in the test on HS 578T breast; more than 100 µM with KM12 colon; more than 100 µM with NCI/ADR-RES ovarian. The total growth inhibition concentration (TGI) with M14 melanoma, in the test with UACC-257 melanoma, in the test on 786-0 renal, in the test with MDA-N and with ACHN renal was more than 100 µM throughout.
As to `Nc1c2c(nc3cc(F)c(F)cc13)CCC2`, the TGI in the test with HL-60(TB) leukemia is 10.1 µM; in the test with MOLT-4 leukemia it was more than 100 µM; in the test on HOP-92 NSCLC it was more than 100 µM; with HS 578T breast, more than 100 µM; in the test with KM12 colon, more than 100 µM; in the test on NCI/ADR-RES ovarian, more than 100 µM. In addition, the TGI with M14 melanoma, in the test on UACC-257 melanoma, with 786-0 renal, with MDA-N and in the test on ACHN renal was more than 100 µM each time.
As for `O=C(O)CC1NC(/C(=C/c2ccccc2)NC(=O)c2ccccc2)OC1=O` (stereo not drawn), the total growth inhibition concentration (TGI) with HL-60(TB) leukemia was 38 µM; in the test with MOLT-4 leukemia it was 45.1 µM; in the test on HOP-92 NSCLC, more than 100 µM; with HS 578T breast, more than 100 µM; in the test with KM12 colon, 34.1 µM; with NCI/ADR-RES ovarian it was 56.4 µM. Besides, the TGI is 35.2 µM in the test with M14 melanoma; more than 100 µM in the test with UACC-257 melanoma; more than 100 µM in the test on 786-0 renal; 86.4 µM in the test on MDA-N; more than 100 µM with ACHN renal.
For `C/C(=N\NC(=S)N1CCCCC1)c1nc2ncccc2[nH]1`, the TGI in the test on HL-60(TB) leukemia is 19.1 µM; in the test on MOLT-4 leukemia, 19.9 µM; with HOP-92 NSCLC it was 43.1 µM; in the test with HS 578T breast, more than 100 µM; with KM12 colon it was more than 100 µM; in the test on NCI/ADR-RES ovarian, more than 100 µM. In addition, the TGI in the test with M14 melanoma was 47.7 µM; in the test on UACC-257 melanoma, 31.9 µM; in the test with 786-0 renal it was more than 100 µM; in the test on MDA-N it was 47.9 µM; in the test with ACHN renal, more than 100 µM.
Regarding `COC(=O)C1=C(C)NC2=C(C(=O)c3ccccc32)C1c1cn(-c2ccccc2)nc1-c1ccccc1` (stereo not drawn), the concentration for total growth inhibition (TGI) is more than 100 µM in the test with HL-60(TB) leukemia; 44.6 µM in the test with MOLT-4 leukemia; more than 100 µM with HOP-92 NSCLC; more than 100 µM in the test with HS 578T breast; more than 100 µM with KM12 colon; more than 100 µM in the test on NCI/ADR-RES ovarian. Also, the TGI with M14 melanoma, in the test on UACC-257 melanoma, in the test on 786-0 renal, with MDA-N and with ACHN renal was more than 100 µM throughout.
For `COC(=O)c1ccc(C(=O)NC(Cc2ccc(Oc3cc(CC(NC(=O)c4ccccc4C(=O)OC)C(=O)OC)ccc3OC)cc2)C(=O)OC)cc1` (stereo not drawn), the TGI in the test on HL-60(TB) leukemia was more than 100 µM; with MOLT-4 leukemia it was more than 100 µM; in the test with HOP-92 NSCLC it was more than 100 µM; in the test with HS 578T breast, 39.3 µM; in the test with KM12 colon, more than 100 µM; in the test with NCI/ADR-RES ovarian, more than 100 µM. Besides, the total growth inhibition concentration (TGI) in the test with M14 melanoma, in the test on UACC-257 melanoma, with 786-0 renal, with MDA-N and with ACHN renal was more than 100 µM each time.
With `OC1(C(F)(F)F)OCCN=C1C(F)(F)F` (stereo not drawn), the total growth inhibition concentration (TGI) in the test with HL-60(TB) leukemia was more than 100 µM; in the test on MOLT-4 leukemia it was more than 100 µM; in the test on HOP-92 NSCLC it was more than 100 µM; with HS 578T breast, 81.3 µM; in the test on KM12 colon, more than 100 µM; with NCI/ADR-RES ovarian, more than 100 µM. Also, the total growth inhibition concentration (TGI) in the test on M14 melanoma, in the test with UACC-257 melanoma, with 786-0 renal, in the test with MDA-N and in the test with ACHN renal was more than 100 µM in each case.
Regarding `CCN(CC)CCC(=O)/C=C/c1ccccc1`, the concentration for total growth inhibition (TGI) was more than 100 µM with HL-60(TB) leukemia; 24.2 µM with MOLT-4 leukemia; 28.7 µM in the test with HOP-92 NSCLC; 39.9 µM in the test on HS 578T breast; 18.5 µM with KM12 colon; 55.1 µM with NCI/ADR-RES ovarian. In addition, the concentration for total growth inhibition (TGI) worked out at 33 µM in the test with M14 melanoma; 31.6 µM in the test with UACC-257 melanoma; 7.62 µM in the test with 786-0 renal; 26.4 µM in the test on MDA-N; 26.2 µM in the test with ACHN renal.
Regarding `N#Cc1nc2ccccc2nc1N1CCN(c2ccc([N+](=O)[O-])cc2)CC1`, the TGI with HL-60(TB) leukemia was more than 100 µM; with MOLT-4 leukemia, 1.05 µM; in the test on HOP-92 NSCLC it was more than 100 µM; in the test on HS 578T breast it was more than 100 µM; with KM12 colon, more than 100 µM; in the test on NCI/ADR-RES ovarian it was more than 100 µM. The total growth inhibition concentration (TGI) in the test with M14 melanoma, with UACC-257 melanoma, in the test on 786-0 renal, with MDA-N and with ACHN renal was more than 100 µM each time.
Take `CNC(C#N)c1ccc(OC)cc1` (stereo not drawn): the total growth inhibition concentration (TGI) with HL-60(TB) leukemia, with MOLT-4 leukemia, in the test with HOP-92 NSCLC, in the test with HS 578T breast, with KM12 colon and with NCI/ADR-RES ovarian was more than 100 µM throughout. The TGI in the test on M14 melanoma, in the test on UACC-257 melanoma, with 786-0 renal, in the test on MDA-N and with ACHN renal was more than 100 µM each time.
